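48-hour exposure; five concentrations; linearly interpolated endpoints. TGI: total growth inhibition.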 Where a SMILES comes first, the peptide text is derived from it. The star is where a group is joined. Boc = CC(C)(C)OC(=O)*; OSu = O=C1CCC(=O)N1O*
Experiments:
Assay in all cases: NCI tumour cell line growth inhibition, 48 h
[1] = tested on: MDA-MB-231 breast
[2] = tested on: RXF 393 renal
[3] = tested on: MALME-3M melanoma
[4] = tested on: NCI-H23 lung
[5] = tested on: SN12C renal
[6] = tested on: KM12 colon
[7] = tested on: SK-MEL-28 melanoma
[8] = tested on: 786-0 renal
[9] = tested on: UACC-62 melanoma
[10] = tested on: NCI-H522 lung
[11] = tested on: UO-31 renal
[12] = tested on: OVCAR-4 ovarian

Which results are given for `O=c1c2c3ccccc3[nH]c2c2cccc3c2n1CCC3`?
TGI [1]: > 100 µM; TGI [2]: > 100 µM; TGI [3]: 71.1 µM; TGI [4]: > 100 µM; TGI [5]: > 100 µM; TGI [6]: > 100 µM; TGI [7]: > 100 µM; TGI [8]: > 100 µM; TGI [9]: > 100 µM

For `CCCCN(CC)c1nc(C)nc2c1c(C)c(C)n2-c1c(C)cc(C)cc1C`, which TGI [1] is on record?
Its TGI is 29.1 µM.

And the TGI [2]?
Its TGI is 19.7 µM.

And the TGI [3]?
Its TGI is 29.6 µM.

What about the TGI [4] of the same compound?
Its TGI is 28.2 µM.

And the TGI [10]?
The TGI was 25.7 µM.

What about the TGI [11] of the same compound?
The TGI was 28.9 µM.

And the TGI [5]?
The TGI was 40.9 µM.

What about the TGI [6] of the same compound?
Its TGI is 36.3 µM.

What about the TGI [7] of the same compound?
The TGI was 31.5 µM.

What about the TGI [12] of the same compound?
The TGI was 37.9 µM.

And the TGI [8]?
The TGI was 30.5 µM.

What does the source list for `CC1(C)CC2(C)CC1CC2O` (stereo not drawn)?
TGI [1]: > 100 µM; TGI [2]: > 100 µM; TGI [3]: > 100 µM; TGI [4]: > 100 µM; TGI [11]: > 100 µM; TGI [5]: > 100 µM; TGI [6]: > 100 µM; TGI [7]: > 100 µM; TGI [12]: > 100 µM; TGI [8]: > 100 µM; TGI [9]: > 100 µM

How did the TGI [1] turn out when `Cc1ccccc1C1OC1C(=O)c1ccccc1N` (stereo not drawn) was run?
The TGI was > 100 µM.

And the TGI [2]?
Its TGI is > 100 µM.

What about the TGI [4] of the same compound?
Its TGI is > 100 µM.

And the TGI [11]?
The TGI was > 100 µM.

And the TGI [5]?
Its TGI is > 100 µM.

What about the TGI [6] of the same compound?
The TGI was > 100 µM.

And the TGI [7]?
The TGI was > 100 µM.

What about the TGI [12] of the same compound?
The TGI was > 100 µM.

What about the TGI [8] of the same compound?
Its TGI is > 100 µM.

And the TGI [9]?
Its TGI is > 100 µM.

Which results are given for `N#CC1=C(N)OC2=C(CSc3ccccc32)C1c1ccc(Br)cc1` (stereo not drawn)?
TGI [1]: 29.3 µM; TGI [2]: 16.3 µM; TGI [3]: 30.7 µM; TGI [4]: 26.4 µM; TGI [11]: 26.7 µM; TGI [5]: 20.4 µM; TGI [6]: 44.6 µM; TGI [7]: 28 µM; TGI [12]: 19.3 µM; TGI [8]: 22.8 µM; TGI [9]: 21.8 µM

`CC(C)(C)OC(=O)NC(Cc1ccc(O)cc1)C(=O)NC(CCCCN)C(=O)NC(Cc1ccc(O)cc1)C(=O)NC(CCCCN)C(=O)ON1C(=O)CCC1=O` (stereo not drawn) (Boc-YKYK-OSu; configuration not given here) was tested. Which TGI [1] did it give?
Its TGI is > 100 µM.

And the TGI [2]?
The TGI was > 100 µM.

And the TGI [3]?
The TGI was > 100 µM.

What about the TGI [4] of the same compound?
The TGI was > 100 µM.

What about the TGI [11] of the same compound?
The TGI was > 100 µM.

What about the TGI [5] of the same compound?
The TGI was > 100 µM.

What about the TGI [6] of the same compound?
The TGI was > 100 µM.

What about the TGI [7] of the same compound?
The TGI was > 100 µM.

What about the TGI [8] of the same compound?
Its TGI is > 100 µM.

What about the TGI [9] of the same compound?
The TGI was > 100 µM.

What does the source list for `c1sc(NC2=NCCO2)c2c1CCCC2`?
TGI [1]: > 100 µM; TGI [2]: > 100 µM; TGI [3]: > 100 µM; TGI [4]: > 100 µM; TGI [10]: > 100 µM; TGI [11]: > 100 µM; TGI [6]: > 100 µM; TGI [7]: > 100 µM; TGI [12]: > 100 µM; TGI [8]: > 100 µM; TGI [9]: > 100 µM

Which results are given for `O=C(NS(=O)(=O)Nc1ccc(Cl)cc1)OCc1ccc(Cl)cc1Cl`?
TGI [1]: 65.7 µM; TGI [3]: 47.5 µM; TGI [4]: 52.3 µM; TGI [11]: 44.2 µM; TGI [5]: 63 µM; TGI [6]: 57.2 µM; TGI [7]: 97.5 µM; TGI [12]: 76.9 µM; TGI [8]: > 100 µM; TGI [9]: 32.3 µM
